Source: US9410958B2, “Alkyne-activated fluorogenic azide compounds and methods of use thereof” (The Regents of the University of California, priority 2014, dated 2016)
“Also recorded” adds a separate entry of the source. Read-outs that look alike come from different tables or passages of the source. Marks after values point to notes of the source that are not given here.

How the values were obtained:
[1] = data from Shieh et al. 2014; cited from earlier work
[2] = Photophysical properties and fluorescence quantum yields of Si-rhodamines in PBS pH 7.4; format: physicochemical; conditions: for Φfl: cresyl violet in methanol as standard
Procedure: The fluorescence quantum yields of the purified amino, azido, and triazolyl Si-rhodamines were measured in pH 7.4 phosphate buffered saline (PBS) using cresyl violet in methanol (Φfl=0.54) as a standard (Table 1). […] The best candidate of the four, 8-azidonaphthyl-substituted Si-rhodamine 1, afforded only a 5-fold increase in fluorescence quantum yield as compared with the 29-fold enhancement observed with the corresponding fluorescein.
Fluorescence quantum yields were measured by creating 2 mM stocks of dyes in MeOH. The dyes were then diluted to 20 μM in PBS, then further diluted in PBS to various final concentrations. The absorbance and emission spectra of five different concentrations of dye were measured while keeping maximum absorbance under 0.2. Solutions of probe were excited at 600 nm, and emission was integrated from 600 to 800 nm. Plotting integrated emission vs. absorbance at 600 nm yielded a line, whose slope corresponds to the fluorescence quantum yield. Absolute quantum yields were determined by comparison with the slope of the line measured for cresyl violet in MeOH (Φfl=0.54). The reported quantum yields are the average of three sets of measurements. Absorbance spectra were recorded on a Varian Cary 50 UV-Visible spectrophotometer. Fluorescence spectra were recorded on a Photon Technology International Quanta Master 4 L-format scanning spectrofluorometer equipped with an LPS-220B 75-W xenon lamp and power supply, A-1010B lamp housing with an integrated igniter, switchable 814 photon counting/analog photomultiplier detection unit, and MD5020 motor driver. Measurements were made in 1 cm×0.4 cm quartz cuvettes with a total sample volume of 1 mL.

[3] = tested on: CHO K1 cells; assay: No-wash cell surface labeling of SiaNAl residues, CHO K1; format: cell-based
Procedure: Si-rhodamine 10 was evaluated as a reagent for imaging SiaNAl residues on live cell surfaces. CHO K1 cells were incubated with 50 μM Ac4ManNAl for 3 days, washed, and then incubated with 5 μM 10, 50 μM CuSO4, 300 μM BTTAA, and 1 mM sodium ascorbate. […] Cell-surface glycan labeling was visualized as it occurred in real time (FIG. 14). Background labeling was minimal on control cells treated with N-acetylmannosamine (Ac4ManNAc) (FIG. 13).

[4] = tested on: HEK 293T cells; assay: No-wash live cell surface labeling and mitochondrial co-staining, HEK 293T; conditions: HEK 293T
Procedure: Cells were grown in 8-well Lab-Tek Chambered Coverglass systems in media (HAM-F12 for CHO K1 cells, DMEM for HEK 293T cells) containing 10% fetal bovine serum, penicillin/streptomycin, and either 50 μM Ac4ManNAl or Ac4ManNAc for 3 d at 37° C., as described previously. The cells were then washed with 3×300 μL PBS, then incubated with 100 μL freshly prepared click solution. Click solution comprised of 50 μM CuSO4, 300 μM BTTAA, 2.5 mM sodium ascorbate, and 5 μM azido Si-rhodamine. This was prepared by first adding 0.5 μL 50 mM CuSO4 in H2O and 3 μL 50 mM BTTAA in H2O to 481.5 μL PBS. Next, 12.5 μL freshly prepared 100 mM sodium ascorbate in PBS was added. Finally, 2.5 μL 1 mM azido Si-rhodamine in 4:1 PBS/MeOH was added. After 15 min, the reactions were quenched with the addition of 1 μL of 100 mM bathocuproine disulfonate (BCS) in H2O (final concentration 1 mM). […] For real-time imaging, images were acquired as the labeling progressed without quenching the reaction.
HEK 293T cells were grown in a LabTek 8-well chambered glass slide in DMEM containing fetal bovine serum, penicillin/streptomycin for 3 d at 37° C. The cells were then incubated with 100 nM MitoTracker Green FM and 1 μg/mL Hoechst 33342 in fresh media for 30 min at 37° C., then media removed and the cells incubated with 100 μL PBS containing 5 μM 10. The cells were then directly imaged.
The CalFluors' performance in no-wash cell imaging experiments was evaluated. Using established methods, cell-surface glycoconjugates were metabolically labeled with peracetylated N-pentynoyl mannosamine (Ac4ManNAl), which introduces terminal alkyne groups into sialic acid residues (SiaNAl). HEK 293T cells treated in this fashion were then incubated, without fixation, with a cocktail containing 50 μM CuSO4, 300 μM BTTAA, 5 mM sodium ascorbate and 10 μM CalFluor dye.
Cells were grown with 50 μM Ac4ManNAl or Ac4ManNAc for 3 days, then subjected to click labeling with CalFluor probes. (A) Labeling glycoproteins on live cell surfaces. Cells were treated with 10 μM azide probe, 50 μM CuSO4, 300 μM BTTAA ligand, and 5 mM sodium ascorbate. The reaction was quenched with 1 mM BCS and the cells imaged without further wash steps. (B) Labeling glycoproteins on fixed cells. Cells were fixed with 3% paraformaldehyde, then treated with 10 μM CalFluor probe, 1 mM CuSO4, 100 μM TBTA ligand, and 2 mM sodium ascorbate. 0.1 mg/mL BSA was added to prevent the TBTA from precipitating over the course of the reaction.

[5] = tested on: wild-type L. monocytogenes; assay: D-alanine competition experiment; conditions: 5 mM cyclooctyne amino acid, 0 or 20 mM D-alanine
Procedure: The bacteria were incubated with 5 mM cyclooctyne amino acid, in the presence of either 0 or 20 mM D-alanine, and labeled following the general procedure.
Bacteria were grown to an optical density (OD) of 0.4 in their respective media (7H9 for M. smegmatis, LB for C. glutamicum, BHI for L. monocytogenes) at 37° C. (M. smegmatis and L. monocytogenes) or 30° C. (C. glutamicum). Then, 5 mM D-amino acid was added (from a 1 M stock in H2O, 1 eq. NaOH was added to help solubilize compounds 12, 13, and 14) and the cells grown for one doubling time. The bacteria were then added to a 96-well V-bottom plate at 200 μL/well and pelleted by centrifugation at 3500 rpm for 3 min. The supernatant was removed and the cells resuspended in 200 μL PBS and pelleted again. This wash process was repeated twice more. The cells were then incubated with 100 μL of 20 μM azido-PEG3-carboxyrhodamine 110 (Click Chemistry Tools) in PBS (made by diluting a 1 mM stock in 9:1 PBS/DMSO) and placed in a 37° C. shaker for 1 h. Alternatively, for alkDala, labeling was performed by incubation with 100 μL of 20 μM azido-PEG3-carboxyrhodamine 110, 128 μM TBTA, 1 mM CuSO4, and 1.2 mM sodium ascorbate in PBS in a 37° C. shaker for 1 h. The cells were washed three times, then fixed with 4% paraformaldehyde for 10 min at rt. The cells were washed another three times, then studied by flow cytometry and microscopy.

[6] = decrease (↓), amine relative to the azide
[7] = increase (↑), triazole relative to the azide

Row | SMILES | λabs [2] [nm] | λem [2] [nm] | Φfl [2] | Change in Φfl [2, 6] | Change in Φfl [2, 7] | also measured
1 | COc1cc(OC)c(-n2cc(CCC(=O)NCCO)nn2)cc1C1=C2C=CC(=[N+](C)C)C=C2[Si](C)(C)c2cc(N(C)C)ccc21 [2 triazole] | – | – | – | – | – | Enhancement [1]: 48x^a; Φfl [1]: 0.20^a; λem [1]: 668 nm^a; λmax [1]: 665 nm^a
2 | CN(C)c1ccc2c(c1)[Si](C)(C)C1=CC(=[N+](C)C)C=CC1=C2c1ccc(N)c2ccccc12 [Compound 1-NH2] | 653 | 669 | 0.0016 | 24-fold ↓ | – | –
3 | CN(C)c1ccc2c(c1)[Si](C)(C)C1=CC(=[N+](C)C)C=CC1=C2c1ccc(-n2cc(CCC(=O)NCCO)nn2)c2ccccc12 [Compound 1-triazole] | 656 | 670 | 0.19 | – | 5.0-fold ↑ | –
4 | COc1ccc(N=[N+]=[N-])cc1C1=C2C=CC(=[N+](C)C)C=C2[Si](C)(C)c2cc(N(C)C)ccc21 [Compound 2-N3] | 653 | 667 | 0.081 | – | – | –
5 | COc1ccc(N)cc1C1=C2C=CC(=[N+](C)C)C=C2[Si](C)(C)c2cc(N(C)C)ccc21 [Compound 2-NH2] | 650 | 669 | 0.0025 | 32-fold ↓ | – | –
6 | COc1ccc(-n2cc(CCC(=O)NCCO)nn2)cc1C1=C2C=CC(=[N+](C)C)C=C2[Si](C)(C)c2cc(N(C)C)ccc21 [Compound 2-triazole] | 655 | 669 | 0.19 | – | 2.3-fold ↑ | –
7 | CN(C)c1ccc2c(c1)[Si](C)(C)C1=CC(=[N+](C)C)C=CC1=C2c1cc(N=[N+]=[N-])ccc1N1CCOCC1 [Compound 3-N3] | 656 | 667 | 0.0014 | – | – | –
8 | CN(C)c1ccc2c(c1)[Si](C)(C)C1=CC(=[N+](C)C)C=CC1=C2c1cc(N)ccc1N1CCOCC1 [Compound 3-NH2] | 650 | 672 | 0.00096 | 1.4-fold ↓ | – | –
9 | CN(C)c1ccc2c(c1)[Si](C)(C)C1=CC(=[N+](C)C)C=CC1=C2c1cc(-n2cc(CCC(=O)NCCO)nn2)ccc1N1CCOCC1 [Compound 3-triazole] | 663 | 676 | 0.0015 | – | 1.1-fold ↑ | –
10 | CN(C)c1ccc2c(c1)[Si](C)(C)C1=CC(=[N+](C)C)C=CC1=C2c1cc(N=[N+]=[N-])cc2[nH]ccc12 [Compound 4-N3] | 660 | 669 | 0.0048 | – | – | –
11 | CN(C)c1ccc2c(c1)[Si](C)(C)C1=CC(=[N+](C)C)C=CC1=C2c1cc(N)cc2[nH]ccc12 [Compound 4-NH2] | 650 | 673 | 0.00088 | 5.5-fold ↓ | – | –
12 | CN(C)c1ccc2c(c1)[Si](C)(C)C1=CC(=[N+](C)C)C=CC1=C2c1cc(-n2cc(CCC(=O)NCCO)nn2)cc2[nH]ccc12 [Compound 4-triazole] | 654 | 668 | 0.0088 | – | 1.8-fold ↑ | –
13 | CN(C)c1ccc2c(c1)[Si](C)(C)C1=CC(=[N+](C)C)C=CC1=C2c1cc(N=[N+]=[N-])cc2c1OCCO2 [Compound 5-N3] | 655 | 668 | 0.019 | – | – | –
14 | CN(C)c1ccc2c(c1)[Si](C)(C)C1=CC(=[N+](C)C)C=CC1=C2c1cc(N)cc2c1OCCO2 [Compound 5-NH2] | 653 | 667 | 0.00093 | 21-fold ↓ | – | –
15 | CN(C)c1ccc2c(c1)[Si](C)(C)C1=CC(=[N+](C)C)C=CC1=C2c1cc(-n2cc(CCC(=O)NCCO)nn2)cc2c1OCCO2 [Compound 5-triazole] | 656 | 668 | 0.18 | – | 9.5-fold ↑ | –
16 | COc1cc(N=[N+]=[N-])cc(C2=C3C=CC(=[N+](C)C)C=C3[Si](C)(C)c3cc(N(C)C)ccc32)c1OC [Compound 6-N3] | 654 | 669 | 0.039 | – | – | –
17 | COc1cc(N)cc(C2=C3C=CC(=[N+](C)C)C=C3[Si](C)(C)c3cc(N(C)C)ccc32)c1OC [Compound 6-NH2] | 652 | 665 | 0.00067 | 58-fold ↓ | – | –
18 | COc1cc(-n2cc(CCC(=O)NCCO)nn2)cc(C2=C3C=CC(=[N+](C)C)C=C3[Si](C)(C)c3cc(N(C)C)ccc32)c1OC [Compound 6-triazole] | 656 | 670 | 0.18 | – | 4.6-fold ↑ | –
19 | COc1cc(C)c(C2=C3C=CC(=[N+](C)C)C=C3[Si](C)(C)c3cc(N(C)C)ccc32)cc1N=[N+]=[N-] [Compound 7-N3] | 650 | 666 | 0.066 | – | – | –
20 | COc1cc(C)c(C2=C3C=CC(=[N+](C)C)C=C3[Si](C)(C)c3cc(N(C)C)ccc32)cc1N [Compound 7-NH2] | 648 | 669 | 0.0015 | 45-fold ↓ | – | –
21 | COc1cc(C)c(C2=C3C=CC(=[N+](C)C)C=C3[Si](C)(C)c3cc(N(C)C)ccc32)cc1-n1cc(CCC(=O)NCCO)nn1 [Compound 7-triazole] | 652 | 666 | 0.25 | – | 3.7-fold ↑ | –
22 | COc1cc(N=[N+]=[N-])c(OC)c(C2=C3C=CC(=[N+](C)C)C=C3[Si](C)(C)c3cc(N(C)C)ccc32)c1 [Compound 8-N3] | 655 | 669 | 0.051 | – | – | –
23 | COc1cc(N)c(OC)c(C2=C3C=CC(=[N+](C)C)C=C3[Si](C)(C)c3cc(N(C)C)ccc32)c1 [Compound 8-NH2] | 654 | 672 | 0.0012 | 41-fold ↓ | – | –
24 | COc1cc(C2=C3C=CC(=[N+](C)C)C=C3[Si](C)(C)c3cc(N(C)C)ccc32)c(OC)c(-n2cc(CCC(=O)NCCO)nn2)c1 [Compound 8-triazole] | 657 | 671 | 0.16 | – | 3.2-fold ↑ | –
25 | COc1cc(OC)c(C2=C3C=CC(=[N+](C)C)C=C3[Si](C)(C)c3cc(N(C)C)ccc32)cc1N [Compound 9-NH2] | 650 | 664 | 0.0014 | 3.0-fold ↓ | – | –
26 | COc1cc(OC)c(-n2cc(CCC(=O)NCCO)nn2)cc1C1=C2C=CC(=[N+](C)C)C=C2[Si](C)(C)c2cc(N(C)C)ccc21 [Compound 9-triazole] | 655 | 668 | 0.20 | – | 48-fold ↑ | –
27 | COCCOCCOCCOc1cc(OCCOCCOCCOC)c(C2=C3C=CC(=[N+](C)C)C=C3[Si](C)(C)c3cc(N(C)C)ccc32)cc1N=[N+]=[N-] [Compound 10] | – | – | – | – | – | cell-surface labeling ([3]; Ac4ManNAl-treated CHO K1, no wash, 15 min): robust cell-surface labeling; background labeling ([3]; CHO K1, control or unwanted labeling): minimal; background, intracellular or mitochondrial labeling [4]: mitochondrial staining; also recorded: punctate fluorescence appeared within the cells almost immediately
28 | NC(CNC(=O)OC1C#CCCCCC1)C(=O)O (stereo not drawn) [Compound 12] | – | – | – | – | – | effect of excess D-alanine on labeling [5]: excess D-alanine decreases the fluorescence intensity
29 | NC(CNC(=O)OC[C@H]1[C@@H]2CCC#CCC[C@@H]21)C(=O)O (stereo partly drawn) [Compound 13] | – | – | – | – | – | effect of excess D-alanine on labeling [5]: excess D-alanine decreases the fluorescence intensity
